From patent US20140135327A1, “N- (2 -AMINOPHENYL) BENZAMIDE DERIVATIVES AS HISTONE DEACETYLASE INHIBITORS” (CANCER RESEARCH TECHNOLOGY LIMITED, priority 2011, published 2014)

How the values were obtained:
Type in all cases: biochemical
[1] = target: T1, HDAC 2 (Homo sapiens, UniProt Q92769); assay: Fluorescence-based HDAC isoform assay with electrophoretic separation, HDAC 2; conditions: isolated 6×His-tagged isoform, 1 μM FAM-labeled acetylated peptide, 17 h at 25° C.
T1 construct: HDACs 1, 2, 3, 6, and 8 were expressed as full length fusion proteins; 6xHis; made in house; host or cells: Sf9 cells (baculovirus)
T1 sequence (Q92769 whole entry, species assumed, the tested form may be a part, canonical isoform): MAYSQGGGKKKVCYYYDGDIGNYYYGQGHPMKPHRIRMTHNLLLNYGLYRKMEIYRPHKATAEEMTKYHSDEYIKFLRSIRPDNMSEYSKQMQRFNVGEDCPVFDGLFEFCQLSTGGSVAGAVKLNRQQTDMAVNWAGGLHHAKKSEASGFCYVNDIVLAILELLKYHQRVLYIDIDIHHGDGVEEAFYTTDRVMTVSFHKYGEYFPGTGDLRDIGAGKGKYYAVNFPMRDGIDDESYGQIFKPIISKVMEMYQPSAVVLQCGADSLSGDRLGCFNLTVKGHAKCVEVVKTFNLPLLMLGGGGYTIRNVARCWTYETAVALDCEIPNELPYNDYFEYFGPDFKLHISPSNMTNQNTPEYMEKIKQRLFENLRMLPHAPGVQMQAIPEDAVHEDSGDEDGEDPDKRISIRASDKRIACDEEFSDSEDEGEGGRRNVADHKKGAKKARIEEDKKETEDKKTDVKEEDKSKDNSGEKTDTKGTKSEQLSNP
Experimental: (§1) The inhibitory effects of the compounds of Examples 7 and 9 above on HDAC activity were determined using a fluorescence-based assay with electrophoretic separation of substrate and product carried out using a microfluidic system followed by quantitation of fluorescence intensity in the substrate and product peaks.
(§2) The assays were performed using isolated HDAC isoforms that had been expressed as 6×His-tagged fusion proteins in a baculovirus expression system in Sf9 cells. HDACs 1, 2, 3, 6, and 8 were expressed as full length fusion proteins. For HDAC-4 and 7 only catalytic domains were expressed (HDAC-4 CAT and HDAC-7 CAT). The HDAC10 fusion protein was expressed as a carboxy-terminal deletion of 38 amino acids (residues 632-669). HDAC3 was coexpressed with a fragment of the SMRT gene (residues 395-489) to generate enzymatically active protein. Purified proteins were incubated with 1 μM carboxyfluorescein (FAM)-labeled acetylated peptide substrate and test compound for 17 h at 25° C. in HDAC assay buffer containing 100 mM HEPES (pH 7.5), 25 mM KCl, 0.1% BSA, and 0.01% Triton X-100. […] Substrate and product were separated electrophoretically using a Caliper LabChip 3000 system with blue laser excitation and green fluorescence detection (CCD2). The fluorescence intensity in the substrate and product peaks was determined using the Well Analyzer software on the Caliper system. […]

[2] = target: T2, HDAC 7-CAT (Homo sapiens, UniProt Q8WUI4); assay: Fluorescence-based HDAC isoform assay with electrophoretic separation, HDAC 7-CAT; conditions: catalytic domain only, 1 μM FAM-labeled acetylated peptide, 17 h at 25° C.
T2 construct: For HDAC-4 and 7 only catalytic domains were expressed (HDAC-4 CAT and HDAC-7 CAT); 6xHis; made in house; host or cells: Sf9 cells (baculovirus)
T2 sequence (Q8WUI4 512-865 limits assumed): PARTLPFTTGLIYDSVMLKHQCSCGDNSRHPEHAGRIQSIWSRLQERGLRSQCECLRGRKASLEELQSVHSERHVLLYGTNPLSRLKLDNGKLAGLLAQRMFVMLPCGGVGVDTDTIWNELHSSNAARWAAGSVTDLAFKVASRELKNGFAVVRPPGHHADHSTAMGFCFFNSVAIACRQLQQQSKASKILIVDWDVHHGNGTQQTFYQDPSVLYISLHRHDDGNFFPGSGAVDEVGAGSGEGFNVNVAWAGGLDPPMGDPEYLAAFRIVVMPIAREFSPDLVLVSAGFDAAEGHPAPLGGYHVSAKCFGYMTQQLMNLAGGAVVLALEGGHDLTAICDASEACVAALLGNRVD
Experimental: as §1, §2

[3] = target: T3, HDAC 1 (Homo sapiens, UniProt Q13547); assay: Fluorescence-based HDAC isoform assay with electrophoretic separation, HDAC 1; conditions: isolated 6×His-tagged isoform, 1 μM FAM-labeled acetylated peptide, 17 h at 25° C.
T3 construct: HDACs 1, 2, 3, 6, and 8 were expressed as full length fusion proteins; 6xHis; made in house; host or cells: Sf9 cells (baculovirus)
T3 sequence (Q13547 whole entry, species assumed, the tested form may be a part, canonical isoform): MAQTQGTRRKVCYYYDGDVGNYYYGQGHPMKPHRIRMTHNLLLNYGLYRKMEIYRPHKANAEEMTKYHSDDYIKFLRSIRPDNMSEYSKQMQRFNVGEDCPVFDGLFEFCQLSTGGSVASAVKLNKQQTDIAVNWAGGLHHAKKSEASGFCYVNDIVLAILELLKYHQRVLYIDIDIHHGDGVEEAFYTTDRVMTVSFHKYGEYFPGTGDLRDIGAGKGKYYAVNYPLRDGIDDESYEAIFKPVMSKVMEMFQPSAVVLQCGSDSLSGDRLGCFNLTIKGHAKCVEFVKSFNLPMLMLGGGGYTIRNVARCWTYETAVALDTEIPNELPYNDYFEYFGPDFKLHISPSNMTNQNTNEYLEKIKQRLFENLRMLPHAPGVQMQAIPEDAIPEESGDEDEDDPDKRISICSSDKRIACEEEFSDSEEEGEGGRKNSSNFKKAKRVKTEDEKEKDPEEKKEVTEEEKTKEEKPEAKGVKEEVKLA
Experimental: as §1, §2

[4] = target: HDAC 3 (Homo sapiens, UniProt O15379); assay: Caliper HDAC inhibitor profiling assay (microfluidic mobility-shift), HDAC 3; conditions: 1 hour at room temperature, read-out: IC50 (μM) HDAC3
Chain of HDAC 3 (O15379 whole entry, species assumed): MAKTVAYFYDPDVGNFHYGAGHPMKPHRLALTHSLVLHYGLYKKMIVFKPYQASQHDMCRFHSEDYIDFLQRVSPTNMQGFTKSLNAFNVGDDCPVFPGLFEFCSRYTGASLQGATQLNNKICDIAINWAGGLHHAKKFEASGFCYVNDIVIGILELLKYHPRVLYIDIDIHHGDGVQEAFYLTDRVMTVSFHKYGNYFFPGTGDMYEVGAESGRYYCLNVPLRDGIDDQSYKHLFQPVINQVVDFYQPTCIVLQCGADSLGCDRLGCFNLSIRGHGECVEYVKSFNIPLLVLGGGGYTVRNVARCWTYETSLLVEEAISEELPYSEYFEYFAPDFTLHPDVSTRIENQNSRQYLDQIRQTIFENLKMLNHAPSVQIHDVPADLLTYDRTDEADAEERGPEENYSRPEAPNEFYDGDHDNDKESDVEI
Chain of HDAC 3 (Q9Y618 395-489 partner limits assumed, species assumed): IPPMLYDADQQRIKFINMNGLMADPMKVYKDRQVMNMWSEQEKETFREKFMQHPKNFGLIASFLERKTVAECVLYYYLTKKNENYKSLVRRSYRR
Experimental: The activity of the compounds of the invention against HDAC 3 (Class I) and HDAC 6 (Class II) can be determined using the Caliper Life Sciences HDAC inhibitor profiling assay, which utilises microfluidic mobility-shift detection.
Reaction buffer: 25 mM Tris/Cl, pH 8.0, 137 mM NaCl, 2.7 mM KCl, 1 mM MgCl2, 0.1 mg/ml BSA (fatty acid free).
Stop Buffer: 100 mM HEPES, pH 7.5, 10 mM EDTA, 0.04% Brij-35, 0.25% CR-3, and 2.5 μM Trichostatin A.
Stopped reactions were assembled in microtiter plate wells by adding 1 μL of the inhibitor compound in DMSO, 15 μL 2× Enzyme, and 15 μL 2× peptide. The reactions were incubated for 1 hour at room temperature, stopped with the addition of 45 μL Stop Solution, and read on the LabChip EZ Reader®. The curves were fit with sigmoidal dose response algorithm using GraphPad Prism.

[5] = target: T4, HDAC 4-CAT (Homo sapiens, UniProt P56524); assay: Fluorescence-based HDAC isoform assay with electrophoretic separation, HDAC 4-CAT; conditions: catalytic domain only, 1 μM FAM-labeled acetylated peptide, 17 h at 25° C.
T4 construct: For HDAC-4 and 7 only catalytic domains were expressed (HDAC-4 CAT and HDAC-7 CAT); 6xHis; made in house; host or cells: Sf9 cells (baculovirus)
T4 sequence (P56524 655-1084 limits assumed): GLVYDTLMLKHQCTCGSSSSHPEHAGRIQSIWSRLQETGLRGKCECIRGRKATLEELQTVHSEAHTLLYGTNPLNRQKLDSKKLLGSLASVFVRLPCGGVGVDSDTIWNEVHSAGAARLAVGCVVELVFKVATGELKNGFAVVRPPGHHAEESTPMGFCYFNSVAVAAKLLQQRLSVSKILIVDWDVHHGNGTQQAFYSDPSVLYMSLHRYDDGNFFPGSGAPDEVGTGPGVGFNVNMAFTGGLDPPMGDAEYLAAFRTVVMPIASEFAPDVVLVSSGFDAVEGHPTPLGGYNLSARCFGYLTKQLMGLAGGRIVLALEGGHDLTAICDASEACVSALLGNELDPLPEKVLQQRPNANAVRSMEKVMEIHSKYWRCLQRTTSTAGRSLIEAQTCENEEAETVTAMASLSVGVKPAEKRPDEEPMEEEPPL
Experimental: as §1, §2

IC50 [1] [µM]	IC50 [2] [µM]	IC50 [3] [µM]	IC50 [4] [µM]	IC50 [5] [µM]	SMILES
2.11	> 30	> 30	0.78	> 30	C=C1CN(Cc2ccc(C(=O)Nc3ccccc3N)cc2)C(CC(=O)O)c2ccccc21 (stereo not shown) [Example 9, [2-(4-{[(2-Aminophenyl)amino]carbonyl}benzyl)-4-methylene-1,2,3,4-tetra hydroisoquinolin-1-yl]acetic acid]
0.0544	7.53	8.7	0.22	9.22	C=C1CN(Cc2ccc(C(=O)Nc3ccccc3N)cc2)C(=O)c2ccccc21 [Example 7, N-(2-Aminophenyl)-4-[(4-methylene-1-oxo-3,4-dihydroisoquino-2(1H)-yl)methyl]benzamide]
